In patent publication US9820483B2, “Microbial composition” (Rohm and Haas Company, priority 2011, dated 2017):

Experiments:
[1] = tested on: Escherichia coli (E. coli—ATCC #10536); experiment: Automated assessment of efficacy in model surfactant base (2.85% sodium cocoyl glycinate + 1.85% sodium lauroamphoacetate, pH 10), 15 seconds exposure, delta OD450/OD590 in D/E quench; assay type: cell-based
Protocol: Solutions were prepared such that the concentrations of the surfactant components and test actives were 1.1× the final desired concentration in order to allow for dilution with the bacterial inoculum in the test. The solutions were manually adjusted to pH 10.0 by dropwise addition of sodium hydroxide solution, as measured with a pH meter at ambient temperature.
Tests were conducted using standard microtiter plate assays using an automated liquid handling system. 270 μl of the surfactant test solution was pipetted into each well of the microtitre plate and 30 μl of the bacterial suspension was then added. After exactly 15 seconds of bacterial exposure, a 30 μl volume of bacterial cells was withdrawn and transferred to 270 μl of D/E quench solution. After 5 minutes in the D/E quench, the optical density (OD) was measured for each plate in turn at two specific wavelengths (450 nm and 590 nm). These provide a dual check of antimicrobial activity, as the OD450 reading is specific for the yellow colour of D/E quench when bacterial growth is observed, whereas OD590 is specific for the initial purple colour of the D/E quench which is retained if no bacterial growth is observed. After the time zero OD measurements, plates were then incubated at 37° C. overnight (16 hours) before repeating the OD measurements. Delta OD values were calculated by subtracting […]. Bacterial growth is observed as an increase in OD450 and a decrease in ΔOD590. To identify antibacterially efficacious systems (those preventing appreciable bacterial growth after incubation), the following threshold changes in OD readings have been adopted: if (1). OD450 increases by less than 0.2 absorbance unit on incubation and (2). OD590 decreases by less than 0.35 unit on incubation. Conversely, where OD450 increases by more than 0.2 AU and OD590 decreases by more than 0.35 unit after incubation, corresponding to a colour shift from purple to yellow, the test system allows bacterial growth and is not deemed efficacious. Four replicate measurements in the same plate have been made for each test system. The number of replicate wells showing either bacterial growth or no growth is also readily assessed by eye by following the colour change.
Dose responses for individual components and binary mixtures of actives at a fixed concentration ratio were generated by sequential dilution of liquors with further surfactant solution to obtain a series of endpoints.
In some selected cases, the combinations were also tested at the weight ratio 1:1.
The method used was the same as in the above Table.

E. coli ATCC #10536 = experiment: Synergy test: high resolution MBC microtiter plate assay in phosphate buffer containing 35% dipropylene glycol, 15 seconds contact; assay type: cell-based, Escherichia coli; details: for MBC of the component acting alone (QA or QB; Qa or Qb with the other component at 0): E. coli 10536, complete kill in 15 seconds, phosphate buffer with 35% DPG
Excerpt: One measure of synergy is the industrially accepted method described by Kull, F. C.; Eisman. P. C.; Sylwestrowicz, H. D. and Mayer, R. L., in Applied Microbiology 9:538-541 (1961), using the ratio determined by the formula: Qa/QA÷Qb/QB=Synergy Index (“SI”) wherein: QA=concentration of compound A (first component) in percent, acting alone, which produced an end point (MBC of Compound A). […]=concentration of compound A in percent, in the mixture, which produced an end point. QB=concentration of compound B (second component) in percent, acting alone, which produced an end point (MBC of Compound B). Qb=concentration of compound B in percent, in the mixture, which produced an end point.
When the sum of Qa/QA and Qb/QB is greater than one, antagonism is indicated. […] The lower the SI, the greater is the synergy shown by that particular mixture. The minimum biocidal concentration (MBC) of a microbicide is the lowest concentration tested under a specific set of conditions that provides complete kill of the tested microorganisms.
Synergy tests were conducted using standard microtiter plate assays with phosphate buffer containing 35% dipropylene glycol (DPG). In this method, a wide range of combinations of chemicals was tested by conducting high resolution MBC assays of Component (A) in the presence of various concentrations of Component (B). High resolution MBCs were determined by adding varying amounts of microbicide to one column of a microtiter plate and doing subsequent ten-fold dilutions using an automated liquid handling system to obtain a series of closely spaced endpoints. The MBC plate was inoculated one column at a time with the test microorganism. An aliquot of the inoculated well was transferred at 15 seconds to a plate containing a neutralizing agent (D/E Neutralizing Broth), mixed and held for 5 minutes before being transferred to a growth plate containing trypticase soy broth (TSB). The TSB plate was incubated at 37° C. and read for the presence/absence of growth at 24 hours. The lowest level tested that provided complete kill (as evidenced by no growth in the microtitre plate) of the test organisms in 15 seconds is the minimum biocidal concentration (MBC).
The synergy of the combinations of the present invention was determined against a bacterium, Esherichia coli (E. coli—ATCC #10536), at a concentration of approximately 1×10^8 bacteria per mL. This microorganism is representative of natural contaminants in many consumer and industrial applications.

SMILES | Δ OD 590 nm = OD590 (time = 16 hours) − OD590 (time zero), Mean ([1]; single active at […] w/v) | ΔOD 450 nm = OD450 (time = 16 hours) − OD450 (time zero), Mean ([1]; single active at […] w/v) | MBC of the component acting alone (QA or QB; Qa or Qb with the other component at 0) (E. coli ATCC #10536) [weight %] | Δ OD 590 nm = OD590 (time = 16 hours) − OD590 (time zero), Mean ([1]; single active at 0.1% w/v) | No. of replicates showing growth (out of 4) ([1]; single active at 0.2% w/v) | Δ OD 590 nm = OD590 (time = 16 hours) − OD590 (time zero), Mean ([1]; single active at 0.2% w/v) | ΔOD 450 nm = OD450 (time = 16 hours) − OD450 (time zero), Mean ([1]; single active at 0.2% w/v) | other results
CCC1CCC(C(CO)CO)CC1 (centres unmarked) | 0.56 | −0.54 | – | – | – | – | – | No. of replicates showing growth (out of 4) ([1]; single active at 0.4% w/v): 4; Δ OD 590 nm = OD590 (time = 16 hours) − OD590 (time zero), Mean ([1]; single active at 0.4% w/v): 0.56; ΔOD 450 nm = OD450 (time = 16 hours) − OD450 (time zero), Mean ([1]; single active at 0.4% w/v): −0.49; No. of replicates showing growth (out of 4) ([1]; single active at 0.5% w/v): 4; Δ OD 590 nm = OD590 (time = 16 hours) − OD590 (time zero), Mean ([1]; single active at 0.5% w/v): 0.590; ΔOD 450 nm = OD450 (time = 16 hours) − OD450 (time zero), Mean ([1]; single active at 0.5% w/v): −0.48; No. of replicates showing growth (out of 4) ([1]; single active at […] w/v): 4
CCCC(=O)OC(C)(C)C1CC=C(C)CC1 (centres unmarked) [2-(4-methylcyclohex-3-enyl)propan-2-yl butyrate] | – | – | 2.4 | – | – | – | – | –
CCCC1CCC(C(CO)CO)CC1 [2-((1S,4R)-4-propylcyclohexyl)propane-1,3-diol] | – | – | 2.5 | – | – | – | – | –
CC[C@H]1CC[C@H](C(CO)CO)CC1 [2-(trans-4-ethylcyclohexyl)propane-1,3-diol] | – | – | – | – | – | – | – | MBC ([1]; Escherichia coli, ATCC10536, 15 s, in 2.85% sodium cocoyl glycinate + 1.85% sodium lauroamphoacetate solution at pH 10, E. coli, read-out: MBC): > 2000 µg/mL
CCC(C)c1ccccc1O (centres unmarked) [2-sec-butylphenol] | 0.50 | −0.41 | 0.3 | 0.36 | – | – | – | Δ OD 590 nm = OD590 (time = 16 hours) − OD590 (time zero), Mean ([1]; single active at 0.05% w/v): 0.30; ΔOD 450 nm = OD450 (time = 16 hours) − OD450 (time zero), Mean ([1]; single active at 0.05% w/v): −1.50
CC(C)(C)c1ccccc1O [2-tert-butylphenol] | – | – | – | 0.23 | 0 | 0.07 | −0.04 | Δ OD 590 nm = OD590 (time = 16 hours) − OD590 (time zero), Mean ([1]; single active at 0.05% w/v): 0.22; No. of replicates showing growth (out of 4) ([1]; single active at 0.1% w/v): 4; ΔOD 450 nm = OD450 (time = 16 hours) − OD450 (time zero), Mean ([1]; single active at 0.1% w/v): −1.55; Δ OD 590 nm = OD590 (time = 16 hours) − OD590 (time zero), Mean ([1]; single active at 0.125% w/v): 0.30
Cc1cc(O)cc(C(C)C)c1 [3-isopropyl-5-methylphenol] | – | – | 0.3 | – | – | – | – | –
CCCc1cccc(O)c1 [3-n-propylphenol] | 0.56 | −0.63 | – | – | 4 | 0.56 | −0.57 | No. of replicates showing growth (out of 4) ([1]; single active at 0.125% w/v): 4; Δ OD 590 nm = OD590 (time = 16 hours) − OD590 (time zero), Mean ([1]; single active at 0.125% w/v): 0.57; ΔOD 450 nm = OD450 (time = 16 hours) − OD450 (time zero), Mean ([1]; single active at 0.125% w/v): −0.59
CC(C)(C)c1cccc(O)c1 [3-tert-butylphenol] | – | – | 0.3 | – | – | 0.64 | −0.47 | Δ OD 590 nm = OD590 (time = 16 hours) − OD590 (time zero), Mean ([1]; single active at 0.125% w/v): 0.65; ΔOD 450 nm = OD450 (time = 16 hours) − OD450 (time zero), Mean ([1]; single active at 0.125% w/v): −0.45
Cc1cc(O)ccc1C(C)C [4-isopropyl-3-methylphenol] | – | – | 0.3 | 0.24 | 4 | 0.36 | −1.41 | Δ OD 590 nm = OD590 (time = 16 hours) − OD590 (time zero), Mean ([1]; single active at 0.05% w/v): 0.25; ΔOD 450 nm = OD450 (time = 16 hours) − OD450 (time zero), Mean ([1]; single active at 0.05% w/v): −1.52; ΔOD 450 nm = OD450 (time = 16 hours) − OD450 (time zero), Mean ([1]; single active at 0.1% w/v): −1.50
CCCCc1ccc(O)cc1 [4-n-butylphenol] | 0.54 | −0.61 | – | 0.53 | – | 0.58 | −0.54 | ΔOD 450 nm = OD450 (time = 16 hours) − OD450 (time zero), Mean ([1]; single active at 0.1% w/v): −0.61
CCCc1ccc(O)cc1 [4-propylphenol] | – | – | – | 0.34 | – | 0.43 | −1.49 | –
CCC(C)c1ccc(O)cc1 (centres unmarked) [4-sec-butylphenol] | 0.60 | −0.53 | 0.2 | – | 4 | 0.59 | −0.56 | Δ OD 590 nm = OD590 (time = 16 hours) − OD590 (time zero), Mean ([1]; single active at 0.125% w/v): 0.60; ΔOD 450 nm = OD450 (time = 16 hours) − OD450 (time zero), Mean ([1]; single active at 0.125% w/v): −0.56
Cc1ccc(C(C)C)cc1O [5-isopropyl-2-methylphenol] | 0.64 | −0.52 | – | – | 4 | 0.62 | −0.52 | SI (Synergy Index) (E. coli ATCC #10536): 1.00; No. of replicates showing growth (out of 4) ([1]; single active at 0.125% w/v): 4; Δ OD 590 nm = OD590 (time = 16 hours) − OD590 (time zero), Mean ([1]; single active at 0.125% w/v): 0.63; ΔOD 450 nm = OD450 (time = 16 hours) − OD450 (time zero), Mean ([1]; single active at 0.125% w/v): −0.50; No. of replicates showing growth (out of 4) ([1]; single active at […] w/v): 4
C=C(C)[C@@H]1CC[C@@H](C)C[C@H]1O [(1R,2S,5R)-5-methyl-2-(prop-1-en-2-yl)cyclohexanol] | – | – | 0.5 | – | – | – | – | –
CC(=O)O[C@H]1C[C@H](C)CC[C@H]1C(C)C [(1S,2S,5R)-2-isopropyl-5-methylcyclohexyl acetate] | – | – | 2.4 | – | – | – | – | –
C/C=C/c1ccccc1O [(E)-2-(prop-1-enyl)phenol] | 0.58 | −0.57 | – | 0.59 | 4 | 0.63 | −0.53 | No. of replicates showing growth (out of 4) ([1]; single active at 0.1% w/v): 4; ΔOD 450 nm = OD450 (time = 16 hours) − OD450 (time zero), Mean ([1]; single active at 0.1% w/v): −0.60; No. of replicates showing growth (out of 4) ([1]; single active at […] w/v): 4
